The target in test [1] is T1, human cloned 5-HT2B receptors (Homo sapiens, UniProt P41595).
T1 construct: expressed in transfected cells; host or cells: CHO-K1 cells
Kind of test: Human cloned 5-HT2B receptor binding assay ([3H]LSD, CHO-K1 membranes). Particulars: displacement of [3H]LSD (1 nM), read-out: 5-HT2B pKi (converted). The protocol:
The binding affinity of the compounds for human cloned 5-HT2B receptors was determined using the following assay.
CHO-K1 cells expressing cloned 5-HT2B receptor were maintained in Ultra-CHO medium containing 400 μg/ml of G418, 100 U/ml penicillin, 100 μg/ml streptomycin, 2.5 μg/ml fungizone and 1% foetal bovine serum, in 95/5% O2/CO2 at 37° C. The cells were harvested using 0.25% trypsin and were centrifuged at 800 rpm for 8 minutes. The cells were homogenised in 50 mM HEPES buffer containing 1 mM disodium EDTA and 1 mM PMSF at pH 7.4, using a Dounce homogeniser (20 strokes). The homogenate was centrifuged at 2280 rpm (1000 g) and 4° C. for 10 minutes, after which the supernatant was removed by decanting. The pellet was re-homogenised as above, and the resulting supernatant removed and combined with that already obtained. The supernatant solution was then centrifuged at 18300 rpm (40000 g) for 10 minutes at 4° C. using a Sorvall centrifuge. The supernatant was removed, and the pellet was re-suspended in 50 mM buffer at pH 7.4 using a Ultra-turrax T25 Polytron, before centrifugation again at 40000 g as above. This wash procedure was repeated, after which the membrane preparation was stored at a concentration of 1 mg/ml at −80° C. until use.
The membranes were thawed rapidly and diluted in assay buffer containing Tris-HCl (50 mM, pH 7.4), ascorbic acid (0.1%) and calcium chloride (4 mM). The membranes were homogenised to resuspend them, prior to adding 10 or 15 μg of membranes to assay wells containing [^3H]LSD (1 nM), assay buffer (50 mM Tris, 4 mM calcium chloride and 0.1% ascorbic acid) containing pargyline (10 μM), and the test compounds (1×10^−10 to 1×10^−4M). Non specific binding was determined in the presence of 100 μM 5-HT. After 30 minutes incubation at 37° C., the assay mixture was filtered through a combination of GF-C and GF-B filters, pre-soaked in 1% polyethyleneimine, using a Brandel cell harvester, and were washed three times using 50 mM Tris-HCl. Radioactivity retained on the filters was determined by liquid scintillation counting. For each test compound, the concentration that inhibited binding of [3H]LSD by 50% was determined using curve fitting software (Prism). Kd values (concentration of LSD required to occupy 50% of the receptor binding sites at equilibrium) determined from saturation binding studies were then used to calculate inhibition dissociation constants (Ki) using the following equation: […]
This approach follows that set out in Kenakin, T.P. Pharmacologic analysis of drug-receptor interaction. Raven Press, New York, 2nd Edition.
(In general: Loss of bound radioactivity is the signal in a displacement assay; it reports binding, not function.)

Test [2] has as its target T2, 5-HT2B receptor in human tissues (Homo sapiens, UniProt P41595).
T2 construct: from tissue; host or cells: human colon longitudinal smooth muscle strips
Kind of test: Human 5-HT2B receptor tissue based functional assay (human colon longitudinal smooth muscle). Format: cell-based. Particulars: antagonism of 5-HT effect on electrically stimulated human colon longitudinal muscle; pKB=log(CR-1)-log(antagonist concentration). The protocol: An in vitro functional assay, using human colon smooth muscle, was carried out to determine the affinity of the test compounds at the 5-HT2B receptor in human tissues. Sections of human colon were cut open along their longitudinal axis. The sections were pinned out flat and the mucosa carefully removed using sharp dissecting scissors. Once the mucosa was removed, the section was turned over to reveal the three taenia coli (taenia mesencolica, taenia omentalis and taenia libera) and the muscle bands that lie between them. Longitudinal muscle strips (2 mm wide by 20 mm long) were then cut from the tissue between the taenia coli and suspended between stainless steel hooks in organ chambers containing oxygenated (95% O2/5% CO2) Krebs solution at 37° C. The composition of the Krebs solution was as follows: NaCl (118.2 mM), KCl (4.69 mM), MgSO4.7H2O (1.18 mM), KH2PO4 (1.19 mM), glucose (11.1 mM), NaHCO3 (25.0 mM), CaCl2.6H2O (2.5 mM). Tissues were placed under a load equivalent to 10 mN and left to equilibrate for a period of at least 60 minutes. Responses were recorded using isometric transducers coupled to an Apple Macintosh computer via a MacLab interface. After 60 minutes, the longitudinal muscle sections of the human colon were stimulated electrically (sub-maximal voltage and frequency with 60s between successive stimulations) using parallel platinum wire electrodes and a Multistim D330 pulse stimulator. Upon electrical stimulation, the strips of human colon longitudinal smooth muscle responded with a rapid contraction. Once the response to electrical stimulation had stabilised (stimulated responses differed by no more than 10%), the strips were exposed to increasing concentrations of 5-HT (1×10^−9 to 1×10^−5M), in the absence or presence of test compounds (1×10^−7 to 1×10^−5M, incubated for 30 minutes). To determine the affinity of the compounds, the concentration of 5-HT required to produce half-maximal effects (EC50) was calculated in the absence and presence of test compound. The antagonist affinity was calculated by dividing the EC50 for 5-HT in the presence of antagonist by the EC50 for 5-HT in the absence of antagonist to yield a concentration ratio (CR). The results are shown in table 2 below as a pKB value, which is calculated as follows: pKB=log(CR−1)−log(antagonist concentration). This approach follows that set out in Kenakin, T. P. Pharmacologic analysis of drug-receptor interaction. Raven Press, New York, 2nd Edition.

Each structure is given as a SMILES string.

T1 sequence (P41595 whole entry): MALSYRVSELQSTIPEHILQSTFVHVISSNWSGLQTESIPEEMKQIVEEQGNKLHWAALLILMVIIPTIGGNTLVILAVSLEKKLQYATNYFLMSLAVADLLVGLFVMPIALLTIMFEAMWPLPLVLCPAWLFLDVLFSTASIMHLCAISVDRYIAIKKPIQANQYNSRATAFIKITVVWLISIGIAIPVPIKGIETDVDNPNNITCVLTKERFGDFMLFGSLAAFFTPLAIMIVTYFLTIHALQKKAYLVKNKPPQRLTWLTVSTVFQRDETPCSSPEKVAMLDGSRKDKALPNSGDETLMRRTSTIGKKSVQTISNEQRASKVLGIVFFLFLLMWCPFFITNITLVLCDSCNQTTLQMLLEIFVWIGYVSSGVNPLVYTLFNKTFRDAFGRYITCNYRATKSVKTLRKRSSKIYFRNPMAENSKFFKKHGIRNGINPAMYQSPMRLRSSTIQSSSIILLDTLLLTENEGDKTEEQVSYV
T2 sequence (P41595 whole entry): as above

In the case of `CC(C)c1nc(N)oc1-c1cccc2ccccc12` [Compound 7, 2-amino-4-isopropyl-5-(naphth-1-yl)oxazole], the Ki in test [1] is under 10 nM. Moreover, the Kb in test [2] was under 10 nM.

As for `COc1ccc2ccccc2c1-c1coc(N)n1` [Compound 17, 4-(2-methoxy-naphthalen-1-yl)-oxazol-2-ylamine], the Ki in test [1] was under 10 nM. The molecule further showed a Kb in test [2] of under 10 nM.

As to `Cc1ccc2ccccc2c1-c1coc(N)n1` [Compound 6, 2-amino-4-(2′-methylnaphth-1-yl)oxazole], the Ki in test [1] is under 10 nM. In test [2], this molecule showed a Kb of under 100 nM.

Take `CC(C)c1nc(N)oc1-c1ccc(F)c2ccccc12` [Compound 31, 2-amino-5-(4′-fluoronaphth-1-yl)-4-isopropyloxazole]: in test [1], the Ki was under 10 nM. The Kb in test [2] is under 100 nM.

In the case of `Nc1nc(-c2cccc3ccccc23)co1` [Compound 1, 2-amino-4-(naphth-1-yl)oxazole], in test [1], the Ki was under 100 nM. The molecule also showed a Kb in test [2] of under 100 nM.

Usually Kb stands for the equilibrium dissociation constant of an antagonist, usually derived from a functional assay. The low end stands for a more potent antagonist, the high end for a less potent antagonist.

(Values after patent US7429607B2, “5-HT2B receptor antagonists” (Asterand UK Limited, priority 2002, dated 2008).)
